Experimental data: patent publication US11485725B2, “Derivatives of piperlongumine and uses thereof” (Auransa Inc., priority 2017, dated 2022)
Where two headings read alike, the source gives them in different places.

Tests used:
[1] = system: HCT116 (colorectal cancer) cells; test: Resazurin-based cell viability assay using colorectal cancer cells; details: Homo sapiens, HCT-116, 72 hr incubation
Method in brief: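 HCT116 cells in DMEM/10% FBS grown 24 h, then exposed to serially diluted compounds for 72 h at 37 °C. Viability read as resazurin (1 mM) fluorescence (ex 535/em 590 nm) after 4–6 h; background-subtracted, normalised to DMSO control, IC50 fitted from percent survival.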

[2] = In vitro microsome stability analyses; assay type: in vitro ADME; details: result in words
DU4475 = test: In vitro cell viability assay (CellTiter-Glo, ATP levels), triple negative breast cancer cells; assay type: cell-based; details: Homo sapiens, DU-4475, 168 h, read-out: DU4475 IC50
Method in brief: (§1)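 Cells plated overnight, then exposed to compounds over a concentration range for 7 days at 37 °C, 5% CO2. Viability read as ATP luminescence (CellTiter-Glo), normalised to positive and negative control wells; IC50 from Hill-equation non-linear regression of concentration–response curves.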

MOLP-8 = test: In vitro cell viability assay (CellTiter-Glo, ATP levels), multiple myeloma cells; assay type: cell-based; details: Homo sapiens, MOLP-8, 168 h, 7-day incubation, CellTiter-Glo, average values; read-out: MOLP-8 IC50
Method in brief: as §1

[3] = In vivo pharmacokinetic analysis, plasma; design: species or system Balb/C female mice; details: mice, result in words
Method: In Vivo Pharmacokinetic Analysis
Age 8 to 9 weeks Balb/C female mice were used for this study. The mice were maintained in a special pathogen-free environment and in disposable cages. Animal room was set to maintain temperature and relative humidity at 23° C.±3° C. and 55%±15%, respectively. Housing room was on a 12:12 light/dark cycle. Water was supplied ad libitum to each cage via water bottles. All mice were fed rodent diet with 18% protein. All animals were weighed before commencement of the study.
Compound 1 was stored at 4° C. protected from light. Dosing solutions were used within 2 hours of preparation. Compound 1 was formulated within 2 hours prior to dosing by adding the pre-calculated volume of PEG 400 (40% of total solution volume). Formulated compound 1 was vortexed and sonicated until a clear solution was formed. […]
The concentration of Compound 1 was determined by a UPLC-TIS-MS-MS method (ultra performance liquid chromatography-turbo ion spray-tandem mass spectrometry). […]
Mass spectrometric analysis was performed using an AB Sciex API5000 with Turbo Ion Spray interface operating in a positive ionization mode. Quantification was performed using multiple reaction monitoring (MRM) method with the transitions of (m/z) 316.104→(m/z) 219.014 for Compound 1 and (m/z) 455.346→(m/z) 165 for verapamil (internal standard). […]

[4] = 7-day incubation, CellTiter-Glo, average values

Row | SMILES | IC50 [1] [µM] | potency and/or metabolic stability [2] | IC50 (DU4475; [4]) [µM] | IC50 (MOLP-8) [µM] | in vivo plasma half-life (t1/2) as compared to piperlongumine [3] | IC50 (DU4475) [µM]
1 | COc1cc(/C=C/C(=O)N2CCC=CC2=O)cc2c1OCCO2 [Compound 1, (E)-1-(3-(8-methoxy-2,3-dihydrobenzo[b][1,4]dioxin-6-yl)acryloyl)-5,6-dihydropyridin-2(1H)-one] | 1.9 | demostrated potency and/or metabolic stability | 0.83 | 0.74 | increased in vivo plasma half-life (t1/2) as compared to piperlongumine | –
2 | CC(C)(C)OC(=O)N1CCC(/C=C(/C(=O)N2CCC=CC2=O)c2ccccc2)CC1 [Compound 91, (E)-tert-butyl 4-(3-oxo-3-(2-oxo-5,6-dihydropyridin-1(2H)-yl)-2-phenylprop-1-enyl)piperidine-1-carboxylate] | 9.16 | – | – | 3.2 | – | 4.14
3 | CC(C)(C)OC(=O)N1CCC(/C=C(\C(=O)N2CCC=CC2=O)c2ccccc2)CC1 [Compound 92, (Z)-tert-butyl 4-(3-oxo-3-(2-oxo-5,6-dihydropyridin-1(2H)-yl)-2-phenylprop-1-enyl)piperidine-1-carboxylate] | 9.72 | – | 4.75 | 4.32 | – | –
